Measured values reported in US20250041209A1, “THERMOSENSITIVE MODIFIED CHITIN SPONGE DRUG-LOADED IMPLANTED SUSTAINED-RELEASE SYSTEM, PREPARATION METHOD THEREFORE, AND USE THEREOF” (priority 2022, published 2025).
Where a name gives a salt, the structure may show the parent alone.

Tested on: cutaneous trunci muscle reflex
Experiment: guinea pig pin-prick assay, local anesthetic efficacy of subcutaneously implanted sponges
Type: in vivo
Settings: subcutaneous implant (sponge about 0.5 g) or 0.5 mL solution injected, n=6
Excerpt: To evaluate in vivo the local anesthetic efficacy of the drug-loaded implanted thermosensitive hydroxypropyl chitin sponges prepared in Example 1, guinea pig pin-prick assay was employed in this invention. Guinea pigs (around 300 g) were induced and maintained with isoflurane. Then the left backs of guinea pigs were shaved before treatment. One longitudinal skin incision with 1.5 cm in length was made by a scalpel at 2 cm left of ridge midline on the back of the guinea pig. Subsequently, one cuboid sponge about 0.5 g (1 cm×1 cm×0.5 cm) was put right in the middle of the incision below the skin. The incision was finally stitched up. 36 animals were randomly divided into six experimental groups with each of 6: group 1: BPV-loaded 0.8B %-HPCH (3.6 wt %) sponge, group 2: 0.8B %-collagen/HPCH (0.6/3.0 wt %) sponge, group 3: 1.2B %-HPCH (3.6 wt %) sponge, group 4: 2.4B %-HPCH (3.6 wt %) sponge, 0.8%-BPV group 5 (0.8 wt % BPV solution) and sham-operated group 6. As for sham-operated group, the incision was made and stitched up without placing a sponge. For BPV solution group, a volume of 0.5 mL 0.8% BPV solution was injected subcutaneously near the skin incision using 30-gage hypodermic needle. […] The nociceptive blockade score (N %) was calculated as following equation: N %=n/8×100%. […]

How did the “effective duration of blockade (time with nociceptive blockade score≥50%)” value turn out when `CCCCN1CCCCC1C(=O)Nc1c(C)cccc1C` (stereo not shown) [0.8%-BPV, bupivacaine hydrochloride] was run?
Its value is 1 h.
